How the values were obtained:
Conditions in all cases: 72 h
Caco-2 [1] = experiment: cell viability relative to DMSO; higher = less toxic
Calu-3 [2] = experiment: as above
HepG2 [3] = experiment: as above
U2OS [4] = experiment: as above
Vero E6 [5] = experiment: as above
Caco-2 [6] = experiment: relative viability EC50 (midpoint between 100% and the lowest measured viability); higher = less toxic
Calu-3 [7] = experiment: as above
HepG2 [8] = experiment: as above
U2OS [9] = experiment: as above
Vero E6 [10] = experiment: as above
Caco-2 [11] = experiment: drug sensitivity score (DSS) for viability; higher = more toxic; extreme values may be limits of the assay
Calu-3 [12] = experiment: as above
HepG2 [13] = experiment: as above
U2OS [14] = experiment: as above
Vero E6 [15] = experiment: as above

| SMILES | cell viability (Caco-2 [1]; 1 nM) [%] | cell viability (Caco-2 [1]; 10 nM) [%] | cell viability (Caco-2 [1]; 100 nM) [%] | cell viability (Caco-2 [1]; 1000 nM) [%] | cell viability (Caco-2 [1]; 10000 nM) [%] | cell viability (Calu-3 [2]; 1 nM) [%] | cell viability (Calu-3 [2]; 10 nM) [%] | cell viability (Calu-3 [2]; 100 nM) [%] | cell viability (Calu-3 [2]; 1000 nM) [%] | cell viability (Calu-3 [2]; 10000 nM) [%] | cell viability (HepG2 [3]; 1 nM) [%] | cell viability (HepG2 [3]; 10 nM) [%] | cell viability (HepG2 [3]; 100 nM) [%] | cell viability (HepG2 [3]; 1000 nM) [%] | cell viability (HepG2 [3]; 10000 nM) [%] | cell viability (U2OS [4]; 1 nM) [%] | cell viability (U2OS [4]; 10 nM) [%] | cell viability (U2OS [4]; 100 nM) [%] | cell viability (U2OS [4]; 1000 nM) [%] | cell viability (U2OS [4]; 10000 nM) [%] | cell viability (Vero E6 [5]; 1 nM) [%] | cell viability (Vero E6 [5]; 10 nM) [%] | cell viability (Vero E6 [5]; 100 nM) [%] | cell viability (Vero E6 [5]; 1000 nM) [%] | cell viability (Vero E6 [5]; 10000 nM) [%] | relative viability EC50 (Caco-2 [6]) [µM] | relative viability EC50 (Calu-3 [7]) [µM] | relative viability EC50 (HepG2 [8]) [µM] | relative viability EC50 (U2OS [9]) [µM] | relative viability EC50 (Vero E6 [10]) [µM] | drug sensitivity score (Caco-2 [11]) | drug sensitivity score (Calu-3 [12]) | drug sensitivity score (HepG2 [13]) | drug sensitivity score (U2OS [14]) | drug sensitivity score (Vero E6 [15]) |
| --- | --- | --- | --- | --- | --- | --- | --- | --- | --- | --- | --- | --- | --- | --- | --- | --- | --- | --- | --- | --- | --- | --- | --- | --- | --- | --- | --- | --- | --- | --- | --- | --- | --- | --- | --- |
| Oc1ccc(-c2c(-c3ccccc3)nn3c(C(F)(F)F)cc(C(F)(F)F)nc23)cc1 [PHTPP] | 104 | 100 | 99.1 | 102 | 95.9 | 98.5 | 94.6 | 97.4 | 91.3 | 113 | 104 | 95.5 | 83.4 | 103 | 88.7 | 99.5 | 96.5 | 102 | 99.2 | 100 | 105 | 109 | 95.8 | 105 | 96.5 | > 10 | > 10 | > 10 | > 10 | > 10 | 0 | 0 | 0 | 0 | 0 |
| C[C@]12CC[C@H](O)CC1=CC[C@@H]1[C@@H]2CC[C@]2(C)C(=O)CC[C@@H]12 [PRASTERONE] | 96.8 | 99.4 | 91.4 | 100 | 92.6 | 94.9 | 81.2 | 98.3 | 96.6 | 108 | 104 | 101 | 94.2 | 92.3 | 92.2 | 97.4 | 102 | 102 | 97.5 | 100 | 99.5 | 101 | 98.7 | 98.7 | 95.2 | > 10 | > 10 | > 10 | > 10 | > 10 | 0 | 0 | 0 | 0 | 0 |
| CC(C)NCCCn1c(Sc2cc3c(cc2I)OCO3)nc2c(N)ncnc21 [PU-H71] | 89.9 | 104 | 106 | 74 | 47.1 | 97.7 | 107 | 100 | 55.3 | 41.1 | 101 | 95.3 | 82.8 | 0.3 | 0.4 | 94.4 | 97.5 | 95.6 | 37.8 | 3.8 | 102 | 105 | 105 | 92.8 | 33.2 | 1.02 | 0.634 | 0.186 | 0.686 | 2.27 | 6.2 | 8.5 | 20.8 | 12.9 | 4.9 |
| CCc1nc2ccc(Cl)cn2c1C(=O)NCc1ccc(N2CCC(c3ccc(OC(F)(F)F)cc3)CC2)cc1 [Q-203] | 97.3 | 95.9 | 97.1 | 93.5 | 85.3 | 99.7 | 100 | 104 | 99.6 | 104 | 106 | 108 | 92.1 | 100 | 86.8 | 98.6 | 101 | 97.8 | 97.4 | 99.8 | 107 | 100 | 99.9 | 98.8 | 96.5 | > 10 | > 10 | > 10 | > 10 | > 10 | 0.1 | 0 | 0.1 | 0 | 0 |
| CN1Cc2c(C(=O)OC(C)(C)C)ncn2-c2ccsc2C1=O [Ro-19-4605] | 98.8 | 102 | 101 | 100 | 103 | 96.9 | 98 | 89 | 103 | 99.3 | 105 | 96.9 | 115 | 96.6 | 108 | 94.5 | 92.8 | 95.4 | 102 | 97.2 | 101 | 96.4 | 103 | 96.8 | 103 | > 10 | > 10 | > 10 | > 10 | > 10 | 0 | 0 | 0 | 0 | 0 |
| Cc1cc(C)cc(NC(=O)Nc2ccc(OS(N)(=O)=O)cc2)c1 [S4] | 105 | 97.6 | 99.3 | 87.4 | 101 | 104 | 104 | 92.7 | 100 | 89.5 | 107 | 99.3 | 104 | 108 | 97.2 | 102 | 96.9 | 100 | 98.1 | 99 | 102 | 103 | 103 | 103 | 96.6 | > 10 | > 10 | > 10 | > 10 | > 10 | 0 | 0 | 0 | 0 | 0 |
